From US20220340665A1, “INHIBITOR AGAINST EXPRESSION OF IMMUNE CHECKPOINT MOLECULE” (RENASCIENCE INC., priority 2019, published 2022)
“Also recorded” adds a separate entry of the source.

Key:
[1] = test system: mouse leukemia cell line (32Dp210); assay: PD-L1 expression in leukemic cells of mice transplanted with 32Dp210 (Experimental Example 5); assay type: in vivo, mice (C3H/HEJ); conditions: peripheral blood, 10 mg/kg orally once daily, 7 days, vs vehicle, listed as PAI-1 inhibitor
Description: Specifically, 5×10^5 cells of a mouse leukemia cell line (32Dp210) were transplanted into mice (C3H/HEJ), and engraftment was confirmed one week later. Subsequently, the PAI-1 inhibitor was orally administered once daily at 10 mg/kg for a total of 7 days. On the next day of the final administration, the peripheral blood or the spleen was collected from the mice. The spleen was mechanically dispersed by grinding through nylon mesh. The peripheral blood and spleen cells were independently hemolyzed with an ammonium chloride solution and then stained with an anti-PD-L1 antibody (clone name: 10F.G92) labeled with Allophycocyanin (APC) to determine the PD-L1 expression level in the leukemic cells with a flow cytometer. As a comparative control experiment, instead of the PAI-1 inhibitor, only physiological saline (vehicle) was administered to the mice transplanted with the mouse leukemia cell line, and the PD-L1 expression level in the leukemic cells was determined with a flow cytometer in the same manner as described above.

[2] = test system: mouse colorectal cancer cell line (MC38); assay: PD-L1 expression level by flow cytometry in MC38 cells (Experimental Example 3); assay type: cell-based; conditions: inhibitor 50 μM with rPAI-1 40 nM, 2 days, listed as PAI-1 inhibitor
Description: Next, the PD-L1 expression level was determined by flow cytometry in the same manner as in Experimental Example 1.
Likewise, a mouse colorectal cancer cell line (MC38) and a mouse malignant melanoma cell line (B16F10) were also tested in the same manner, instead of the mouse leukemia cell line (32Dp210).

[3] = test system: mouse colorectal cancer cell line (MC38); assay: Size of subcutaneous MC38 tumor mass in mice (Experimental Example 11); assay type: in vivo, mice (C57BL6); conditions: PAI-1 inhibitor 10 mg/kg orally daily 14 days, anti-PD1 antibody 15 μg i.p. every 3 days, 3 times, 14 and 21 days
From the text: Mice (C57BL6) were divided into 1) an untreated group (vehicle) (n=15), 2) a single-administration group of anti-PD1 antibody (anti-PD-1 Ab), 3) a single-administration group of PAI-1 inhibitor (PAI-1 inhibitor), and 4) a combination group of anti-PD1 antibody and PAI-1 inhibitor (anti-PD-1 Ab+PAI-1 inhibitor) (n=18 for 2) to 4)). Then, 5×10^5 cells of the mouse colorectal cancer cell line (MC38) were transplanted subcutaneously into each mouse. One week after transplantation, engraftment of more than 5 mm of a tumor mass in the major axis was confirmed. Subsequently, the PAI-1 inhibitor (10 mg/kg) was orally administered once daily to groups 3) and 4) above for a total of 14 consecutive days. For groups 2) and 4), 15 μg of anti-PD1 antibody was intraperitoneally administered every 3 days (3 times in total) from the same day as the administration day of the PAI-1 inhibitor. For the untreated group, physiological saline was orally administered. The size of the tumor mass was measured 2 weeks (14 days) and 3 weeks (21 days) after the transplantation (0 days).

[4] = non-clinical and clinical studies (JP2020-088416A); cited from earlier work
[5] = biological target: human PAI-1 (Homo sapiens, UniProt P05121); assay: PAI-1 inhibitory activity, t-PA with Spectrozyme t-PA chromogenic substrate (Reference Experimental Example 2); assay type: biochemical; set-up: purchased Molecular Innovations, Inc. (USA); conditions: system without compound after 120 minutes = 100%
Sequence of human PAI-1 (P05121 24-402): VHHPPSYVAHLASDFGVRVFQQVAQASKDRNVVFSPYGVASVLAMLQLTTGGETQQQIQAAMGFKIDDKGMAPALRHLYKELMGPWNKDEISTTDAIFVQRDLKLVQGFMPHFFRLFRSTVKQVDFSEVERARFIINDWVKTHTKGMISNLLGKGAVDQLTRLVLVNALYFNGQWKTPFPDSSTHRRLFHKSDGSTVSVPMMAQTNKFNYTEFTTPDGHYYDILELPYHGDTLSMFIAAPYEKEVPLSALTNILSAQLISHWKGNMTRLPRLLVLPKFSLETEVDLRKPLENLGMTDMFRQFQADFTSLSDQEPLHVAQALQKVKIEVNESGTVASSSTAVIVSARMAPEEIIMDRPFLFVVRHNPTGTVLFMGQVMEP
Description: Subsequently, human-derived tissue plasminogen activator (t-PA) (manufactured by American Diagnostica, Inc. (USA); the same applies hereinafter) adjusted to 0.05 pmol/μL was added thereto, and the mixture was further incubated at 37° C. for 60 minutes. Then, 0.25 mM of Spectrozyme t-PA synthetic substrate (manufactured by American Diagnostica, Inc. (USA); the same applies hereinafter), which is a chromogenic substrate, was added. […]
Free p-nitroaniline removed from the chromogenic substrate (Spectrozyme t-PA) by t-PA action was measured using a spectrophotometer at an absorbance of 405 nm at 20-minute intervals, for 120 minutes.

[6] = test system: M2 macrophages; assay: Macrophages and M2 macrophages in MC38 tumor mass by flow cytometry (Experimental Example 13); assay type: in vivo, mice (C57BL6); conditions: oral administration for one week, vs vehicle
Description: 1) The untreated group and 3) the single-administration group of PAI-1 inhibitor (cancer-bearing mice) of Experimental Example 11, after tumor engraftment, were orally administered with physiological saline (vehicle) or the PAI-1 inhibitor for one week. Thereafter, the tumors were collected, and the M2 macrophages were stained with an anti-CD45 antibody, an anti-CD11b antibody, an anti-F4/80 antibody, and an anti-CD206 antibody, and the percentage of M2 macrophages in the tumor mass was analyzed with a flow cytometer.

[7] = test system: mouse colorectal cancer cell line (MC38); assay: MC38 tumor mass in immunodeficient and wild-type mice (Experimental Example 12); assay type: in vivo; conditions: 10 mg/kg orally once daily, 14 days, listed as PAI-1 inhibitor
Description: To confirm this point, the following experiment was performed. Specifically, 5×10^5 cells of a mouse colorectal cancer cell line (MC38) were subcutaneously transplanted into immunodeficient mice (Rag2/IL-2R-KO) and wild-type mice (WT, for control). The immunodeficient mice lacked the RAG2 gene and the IL-2 receptor γ chain gene, and immune cells (T cells, B cells, NK cells) were not congenitally present in the body. One week later, engraftment of more than 5 mm of a tumor mass in the major axis was confirmed. Subsequently, the PAI-1 inhibitor (10 mg/kg) or physiological saline (vehicle) was orally administered to each mouse once daily for a total of 14 consecutive days.

[8] = test system: M2 macrophages (CD11b+CD206+); assay: PD-L1 expression in M2 macrophages from cultured mouse spleen cells (Experimental Example 6); assay type: cell-based; conditions: inhibitor 50 μM with rPAI-1 100 nM, 4 days; listed as PAI-1 inhibitor
Description: Specifically, 5×10^6 mouse spleen cells were cultured on a 24-well plate at 37° C., 5% CO2, overnight. After floating cells were removed, rPAI-1 (100 nM) was added, and culturing was performed at 37° C., 5% CO2, for 4 days. After culture, adherent cells were collected by trypsin treatment and stained with an anti-CD11b antibody and an anti-CD206 antibody, in addition to an anti-PD-L1 antibody. Then, gating was performed on CD11b and CD206 double-positive (CD11b^+CD206^+) M2 macrophages, and the PD-L1 expression level thereof was determined with a flow cytometer. As a comparative control experiment, the PD-L1 expression level in untreated mouse spleen cells (control) was determined in the same manner. Further, the PAI-1 inhibitor (50 μM) was added to the same mouse spleen cells, together with rPAI-1 (100 nM), followed by culture under the same conditions as described above. Then, adherent cells were collected and the PD-L1 expression level was determined with a flow cytometer in the same manner.

- PAI-1 activity % ([5]; compound 10 μm (head)): 2.1%
- PAI-1 activity % ([5]; compound 25 μm (head)): 2.4%
SMILES: O=C(Nc1ccc(Cl)cc1C(=O)[O-])c1cccc(-c2cccc3cccnc23)c1.[Na+] [Example 68, 5-chloro-2-(((3-(quinolin-8-yl)phenyl)carbonyl)amino)sodium benzoate]
- PD-L1 expression level in leukemia cells [1]: reduced PD-L1 expression level; also recorded: lower PD-L1 expression level
- PD-L1 expression induction by rPAI-1 [2]: completely inhibited the induction; also recorded: the same results as those of the leukemia cells
- size of the tumor mass [3]: significantly regressed; also recorded: tumor regression
- safety by oral administration [4]: no safety issues
- number of macrophages in the tumor [6]: reduced
- percentage of M2 macrophages among macrophages [6]: reduced
- tumor regression effect ([7]; immunodeficient mice (Rag2/IL-2R-KO)): no such an effect was observed; also recorded: not observed
- tumor regression effect ([7]; wild-type mice (WT), 10 mg/kg): achieved a tumor regression effect; also recorded: observed
- enhancement of PD-L1 expression by rPAI-1 in M2 macrophages [8]: completely suppressed
